From patent publication US12686690B2, “Macrocyclic urea orexin receptor agonists” (Merck Sharp & Dohme LLC, priority 2020, dated 2026)

Molecular target: T1, hOX2R (Homo sapiens, UniProt O43614)
T1 construct: expressed in transfected cells; host or cells: CHO cells (G418 selection)
T1 sequence (O43614 1-444): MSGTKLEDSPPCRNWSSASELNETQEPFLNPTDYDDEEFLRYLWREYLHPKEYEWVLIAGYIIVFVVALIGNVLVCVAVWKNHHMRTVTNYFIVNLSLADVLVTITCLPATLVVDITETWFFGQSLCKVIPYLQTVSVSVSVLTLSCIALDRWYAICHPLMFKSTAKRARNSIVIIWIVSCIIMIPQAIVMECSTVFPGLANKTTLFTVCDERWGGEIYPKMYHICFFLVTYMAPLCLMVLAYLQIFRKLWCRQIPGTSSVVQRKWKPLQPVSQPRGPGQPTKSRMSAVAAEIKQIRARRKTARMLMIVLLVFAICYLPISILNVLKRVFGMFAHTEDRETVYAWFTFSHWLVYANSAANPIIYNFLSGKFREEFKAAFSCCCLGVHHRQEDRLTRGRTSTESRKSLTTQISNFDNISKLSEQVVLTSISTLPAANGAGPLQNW
Assay: hOX2R IPone assay (orexin receptor agonism)
Assay type: cell-based
Details: IPone readout; for hOX2R_Ipone max %act: maximal activation; for EC50: orexin receptor agonist, read-out: hOX2R_IPone EC50

| Structure (SMILES) | hOX2R_Ipone max %act [%] | EC50 [nM] |
| --- | --- | --- |
| CCN1C(=O)NC(CCC(F)(F)F)CCOCCOc2cn3ncnc3c(n2)-c2ccnc(c2)C1C [Example 136, (3R,7S,E)-4-ethyl-3-methyl-7-(3,3,3-trifluoropropyl)-10,13-dioxa-4,6-diaza-1(6,8)-[1,2,4]triazolo[1,5-a]pyrazina-2(4,2)-pyridinacyclotridecaphan-5-one] | 101.7 | 0.724 |
| CCN1C(=O)N[C@@H](CCC(F)(F)F)CCCCCc2cc(cn3ccnc23)-c2nc(ccc2OC)[C@H]1C [Example 138, (3R,7R,Z)-4-ethyl-23-methoxy-3-methyl-7-(3,3,3-trifluoropropyl)-4,6-diaza-1(6,8)-imidazo[1,2-a]pyridina-2(2,6)-pyridinacyclododecaphan-5-one] | 100.1 | 8.48 |
| CCN1C(=O)N[C@@H](CCC(F)(F)F)CCCCCOc2nc(cn3ccnc23)-c2nc(cnc2OC)[C@H]1C [Example 139, (3R,7R,E)-4-ethyl-23-methoxy-3-methyl-7-(3,3,3-trifluoropropyl)-13-oxa-4,6-diaza-1(6,8)-imidazo[1,2-a]pyrazina-2(2,6)-pyrazinacyclotridecaphan-5-one] | 97.88 | 1.08 |
| CCN1C(=O)N[C@@H](CCC(F)(F)F)CCCCCOc2cc(cc3ccnn23)-c2cc(nnc2OC)[C@H]1C [Example 140, (3R,7R,E)-4-ethyl-26-methoxy-3-methyl-7-(3,3,3-trifluoropropyl)-13-oxa-4,6-diaza-1(5,7)-pyrazolo[1,5-a]pyridina-2(5,3)-pyridazinacyclotridecaphan-5-one] | 101.9 | 1.4 |
| CCN1C(=O)N[C@@H](C)C(F)(F)CCCCOc2nc(cn3ccnc23)-c2cc(ncc2OC)[C@H]1C [Example 141, (3R,7S,E)-4-ethyl-8,8-difluoro-25-methoxy-3,7-dimethyl-13-oxa-4,6-diaza-1(6,8)-imidazo[1,2-a]pyrazina-2(4,2)-pyridinacyclotridecaphan-5-one] | 99.01 | 8.35 |
| CCN1C(=O)N[C@@H](CCC(F)(F)F)CCCCCOc2nc(cn3ncnc23)-c2ccnc(c2)[C@H]1C [Example 142, (3R,7R,E)-4-ethyl-3-methyl-7-(3,3,3-trifluoropropyl)-13-oxa-4,6-diaza-1(6,8)-[1,2,4]triazolo[1,5-a]pyrazina-2(4,2)-pyridinacyclotridecaphan-5-one] | 100.3 | 4.71 |
| CCN1C(=O)N[C@@H](CCC(F)(F)F)CCCCCOc2nc(cn3ccnc23)-c2ccnc(c2)C1(C)C [Example 143, (R,E)-4-ethyl-3,3-dimethyl-7-(3,3,3-trifluoropropyl)-13-oxa-4,6-diaza-1(6,8)-imidazo[1,2-a]pyrazina-2(4,2)-pyridinacyclotridecaphan-5-one] | 89.95 | 271 |
| CCN1C(=O)N[C@@H](CCC(F)(F)F)CCCCOCc2nc(cn3ccnc23)-c2cc(ncc2OC)[C@H]1C [Example 144, (3R,7R,E)-4-ethyl-25-methoxy-3-methyl-7-(3,3,3-trifluoropropyl)-12-oxa-4,6-diaza-1(6,8)-imidazo[1,2-a]pyrazina-2(4,2)-pyridinacyclotridecaphan-5-one] | 101.4 | 6.09 |
| CCN1C(=O)NC2CC2CCCCOc2cn3ccnc3c(n2)-c2cc(ncc2OC)C1C [Example 145, (3R,E)-4-ethyl-25-methoxy-3-methyl-12-oxa-4,6-diaza-1(6,8)-imidazo[1,2-a]pyrazina-2(4,2)-pyridina-7(1,2)-cyclopropanacyclododecaphan-5-one] | 103.8 | 4.4 |
| CCN1C(=O)N[C@@H](CCC(C)(F)F)CCCCCOc2nc(cn3ncnc23)-c2cc(cnc2C)[C@H]1C [Example 146, (3R,7R,E)-7-(3,3-difluorobutyl)-4-ethyl-22,3-dimethyl-13-oxa-4,6-diaza-1(6,8)-[1,2,4]triazolo[1,5-a]pyrazina-2(3,5)-pyridinacyclotridecaphan-5-one] | 100.8 | 14.7 |
| CCN1C(=O)N[C@@H](CCC(F)(F)F)CCCCCOc2nc(cn3ncnc23)-c2nc(ncc2OC)[C@H]1C [Example 147, (3R,7R,E)-4-ethyl-25-methoxy-3-methyl-7-(3,3,3-trifluoropropyl)-13-oxa-4,6-diaza-1(6,8)-[1,2,4]triazolo[1,5-a]pyrazina-2(4,2)-pyrimidinacyclotridecaphan-5-one] | 102.4 | 3.69 |
| CCN1C(=O)N[C@@H](CCC(C)(F)F)CCOCCOc2nc(cn3ncnc23)-c2cc(cnc2OC)[C@H]1C [Example 148, (3R,7S,E)-7-(3,3-difluorobutyl)-4-ethyl-22-methoxy-3-methyl-10,13-dioxa-4,6-diaza-1(6,8)-[1,2,4]triazolo[1,5-a]pyrazina-2(3,5)-pyridinacyclotridecaphan-5-one] | 101.7 | 1.7 |
| CCN1C(=O)N[C@@H](CCC(F)(F)F)CCCCCOc2cc(nn3ccnc23)-c2cc(ncc2OC)[C@H]1C [Example 149, (3R,7R,E)-4-ethyl-25-methoxy-3-methyl-7-(3,3,3-trifluoropropyl)-13-oxa-4,6-diaza-1(6,8)-imidazo[1,2-b]pyridazina-2(4,2)-pyridinacyclotridecaphan-5-one] | 109.6 | 1.11 |
| CCN1C(=O)N[C@@H](CCC(F)(F)F)CCOCCOc2cc(cn3ncnc23)-c2cc(ncc2OC)[C@H]1C [Example 150, (3R,7S,E)-4-ethyl-25-methoxy-3-methyl-7-(3,3,3-trifluoropropyl)-10,13-dioxa-4,6-diaza-1(6,8)-[1,2,4]triazolo[1,5-a]pyridina-2(4,2)-pyridinacyclotridecaphan-5-one] | 103 | 2.43 |
| CCN1C(=O)NC(CC(C)(F)F)CCCCCOc2cn3ccnc3c(n2)-c2cc(ncc2OC)C1C [Example 151, (3R,7R,E)-7-(2,2-difluoropropyl)-4-ethyl-25-methoxy-3-methyl-13-oxa-4,6-diaza-1(6,8)-imidazo[1,2-a]pyrazina-2(4,2)-pyridinacyclotridecaphan-5-one] | 108.6 | 0.51 |
| CCN1C(=O)N[C@@H](c2nccnc2C)CCCCCOc2nc(cn3ccnc23)-c2cc(ncc2OC)[C@H]1C [Example 152, (3R,7R,E)-4-ethyl-25-methoxy-3-methyl-7-(3-methylpyrazin-2-yl)-13-oxa-4,6-diaza-1(6,8)-imidazo[1,2-a]pyrazina-2(4,2)-pyridinacyclotridecaphan-5-one] | 106.5 | 4.17 |
| CCN1C(=O)N[C@@H](CCC(C)(F)F)COCCCOc2nc(cn3ncnc23)-c2cc(ncc2C)[C@H]1C [Example 153, (3R,7S,E)-7-(3,3-difluorobutyl)-4-ethyl-25,3-dimethyl-9,13-dioxa-4,6-diaza-1(6,8)-[1,2,4]triazolo[1,5-a]pyrazina-2(4,2)-pyridinacyclotridecaphan-5-one] | 107.8 | 2.2 |
| CCN1C(=O)N[C@@H](CCS(C)(=O)=O)CCCCCOc2nc(cn3ncnc23)-c2cc(ncc2OC)[C@H]1C [Example 154, (3R,7R,E)-4-ethyl-25-methoxy-3-methyl-7-(2-(methylsulfonyl)ethyl)-13-oxa-4,6-diaza-1(6,8)-[1,2,4]triazolo[1,5-a]pyrazina-2(4,2)-pyridinacyclotridecaphan-5-one] | 106.1 | 1.05 |
| CCN1C(=O)N[C@@H](CCC(C)(F)F)CCOCCOc2nc(nn3ccnc23)-c2cc(ncc2OC)[C@H]1C [Example 155, (3R,7S,E)-7-(3,3-difluorobutyl)-4-ethyl-25-methoxy-3-methyl-10,13-dioxa-4,6-diaza-1(2,4)-imidazo[2,1-f][1,2,4]triazina-2(4,2)-pyridinacyclotridecaphan-5-one] | 96.86 | 0.74 |
| CCN1C(=O)NC(CCC(F)(F)F)CCCCCOc2cc(n3nccc3c2)-c2ccnc(c2)C1C [Example 156, (3R,7R,E)-4-ethyl-3-methyl-7-(3,3,3-trifluoropropyl)-13-oxa-4,6-diaza-1(5,7)-pyrazolo[1,5-a]pyridina-2(4,2)-pyridinacyclotridecaphan-5-one] | 100.3 | 1.32 |
| CCN1C(=O)N[C@@H](CCC(F)(F)F)CCCCCOc2cc(cc3cccnc23)-c2cc(ncc2OC)[C@H]1C [Example 157, (3R,7R)-4-ethyl-25-methoxy-3-methyl-7-(3,3,3-trifluoropropyl)-13-oxa-4,6-diaza-1(6,8)-quinolina-2(4,2)-pyridinacyclotridecaphan-5-one] | 99.72 | 2.68 |
| C[C@@H]1c2cc(ccn2)-c2cn3ccnc3c(n2)OCCCCC[C@H](CCC(F)(F)F)NC(=O)N1C [Example 158, (3R,7R,E)-3,4-dimethyl-7-(3,3,3-trifluoropropyl)-13-oxa-4,6-diaza-1(6,8)-imidazo[1,2-a]pyrazina-2(4,2)-pyridinacyclotridecaphan-5-one] | 102 | 3.87 |
| CCN1C(=O)N[C@@H](CCC(F)(F)F)CCCCCOc2nc(cn3ccnc23)-c2cnnc(c2)[C@H]1C [Example 159, (3R,7R,E)-4-ethyl-3-methyl-7-(3,3,3-trifluoropropyl)-13-oxa-4,6-diaza-1(6,8)-imidazo[1,2-a]pyrazina-2(5,3)-pyridazinacyclotridecaphan-5-one] | 72.77 | 541 |
